Earlier results on two molecules are cited in patent publication US20170068777A1, “METHODS OF IDENTIFYING AND F[…] COMPOUNDS THAT MODULATE PHENOTYPE-RELATED TARGETS” (Tufts University, priority 2015, published 2017).

For the series the following is noted: shown experimentally in the literature.

Regarding `CC1(C(=O)O)CCC2(C)CCC3(C)C(=CCC4C5(C)CCC(O)C(C)(CO)C5CCC43C)C2C1` (centres unmarked) [Azukisapogenol], the “effect on TG levels” value is “lower TG levels”.
With `CC1(C)[C@@H](O)CC[C@]2(C)[C@H]3C(=O)C=C4[C@@H]5C[C@@](C)(C(=O)O)CC[C@]5(C)CC[C@@]4(C)[C@]3(C)CC[C@@H]12` [Glycyrrhetic acid], the “effect on TG levels” value is given as “lower TG levels”.
